Experimental findings from patent US20060166989A1, “2-naphthamide derivatives” (Bayer Healthcare AG, priority 2002, published 2006) are described below.

For data set [1], the target named is T1, IP receptor (Homo sapiens, UniProt P43119).
T1 construct: HEL cells were collected with centrifugation and washed with cAMP assay buffer; host or cells: HEL 92.1.7 human erythroleukemia cells
Nature of the data set: Iloprost-induced cAMP production assay in HEL cells (Assay 2). Type of data set: cell-based. The following applies: read-out: Activity grade assay 2. Here is the method: [Iloprost-Induced cAMP Production Assay in HEL Cells] (Assay 2)
HEL cells were collected with centrifugation and washed with cAMP assay buffer (CAB: Hank's balanced salt solution, 17 mM Hepes, 0.1% bovine serum albumin, 1 mM IBMX, 0.4% DMSO, and 1 mM L-ascorbic acid sodium salt (pH 7.4)). Cells were suspended at the density of 2.5×10^5 cells/ml in CAB, and twenty thousand cells in 80 μl aliquot of cell suspension were put in a well of 96 well plate (Falcon). Then, 10 μl of compound solution diluted with 1% DMSO in CAB or buffer alone was added. The plate was incubated at 37° C. for 30 min. Then, another 10 μl containing 100 nM iloprost in CAB or buffer alone was added and further incubated at 37° C. for 30 min. cAMP content in the well was measured by a cAMP ELISA kit (Applied Biosystems, USA).
Results of Iloprost-induced cAMP production assay (Assay2) are shown in Examples and tables of the Examples below. For practical reasons, the compounds are grouped in three classes of activity as follows: A(=or<)0.1μM<B(=or<)1μM<C

pIC50: −log10 of the molar value.

T1 sequence (P43119 whole entry): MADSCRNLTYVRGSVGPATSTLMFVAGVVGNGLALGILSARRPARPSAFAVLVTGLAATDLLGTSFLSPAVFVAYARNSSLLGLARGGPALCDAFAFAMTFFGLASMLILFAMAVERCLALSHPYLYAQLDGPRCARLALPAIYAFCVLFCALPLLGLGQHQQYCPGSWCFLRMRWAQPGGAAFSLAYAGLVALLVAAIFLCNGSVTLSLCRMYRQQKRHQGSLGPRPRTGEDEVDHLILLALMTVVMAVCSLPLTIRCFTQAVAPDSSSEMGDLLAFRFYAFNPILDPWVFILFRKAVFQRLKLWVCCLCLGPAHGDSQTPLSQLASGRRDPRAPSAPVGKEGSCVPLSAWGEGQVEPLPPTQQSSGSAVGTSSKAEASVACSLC

`O=C(NC(Cc1ccccc1)C(=O)O)c1ccc2cc(OCc3ccccc3Cl)ccc2c1` (stereo not drawn) [Example 1-23] showed a melting point of 215 °C. Besides, in data set [1], the pIC50 was over 7.00.
For `O=C(NC(Cc1ccccc1)C(=O)O)c1ccc2cc(OCCn3ccnc3)ccc2c1` (stereo not drawn) [Example 1-86], in that order: 172 °C (dec.) and 6.00 to 7.00.
The matching figures for `O=C(NC(Cc1ccncc1)C(=O)O)c1ccc2cc(OCc3ccccc3)ccc2c1` (stereo not drawn) [Example 1-69]: 260 to 262 °C (dec.) and 6.00 to 7.00.
Compound `O=C(NC(Cc1ccccc1)C(=O)O)c1ccc2cc(OCCOc3ccccc3)ccc2c1` (stereo not drawn) [Example 1-4] yielded a melting point of 225 to 227 °C. The pIC50 in data set [1] was 6.00 to 7.00.
For the compound `CS(=O)(=O)Nc1ccc(CC(NC(=O)c2ccc3cc(OCc4ccccc4)ccc3c2)C(=O)O)cc1` (stereo not drawn) [Example 1-68], the melting point lay within 236 to 237 °C. In data set [1], the pIC50 was under 6.00.
The matching figures for `O=C(NC(Cc1ccccc1)C(=O)O)c1ccc2cc(OCc3cccc(Cl)c3Cl)ccc2c1` (stereo not drawn) [Example 1-33]: 211 °C and over 7.00.
The matching figures for `O=C(NC(Cc1ccccc1)C(=O)O)c1ccc2cc(OCc3cccc(C(F)(F)F)c3)ccc2c1` (stereo not drawn) [Example 1-27]: 158 °C and under 6.00.
In turn, `CCCOc1cccc(COc2ccc3cc(C(=O)NC(Cc4ccccc4)C(=O)O)ccc3c2)c1` (stereo not drawn) [Example 1-92] displayed a melting point of 173 °C. For the same compound, in data set [1], the pIC50 was 6.00 to 7.00.
For `O=C(NC(Cc1ccccc1)C(=O)O)c1ccc2cc(OCc3cccc(OC(F)(F)F)c3)ccc2c1` (stereo not drawn) [Example 1-36], in that order: 157 °C and 6.00 to 7.00.
`O=C(NC(Cc1ccccc1)C(=O)O)c1ccc2cc(OCc3ccc(C(F)(F)F)cc3)ccc2c1` (stereo not drawn) [Example 1-28] showed a melting point of 224 °C. Also, the pIC50 in data set [1] was under 6.00.
For `CC(Cc1ccccc1)(NC(=O)c1ccc2cc(OCc3ccccc3)ccc2c1)C(=O)O` (stereo not drawn) [Example 1-84], in that order: 184 °C and 6.00 to 7.00.
Turning to `CC(COc1ccc2cc(C(=O)NC(Cc3ccccc3)C(=O)O)ccc2c1)c1ccccc1` (stereo not drawn) [Example 1-94], the melting point amounted to 160 °C. The pIC50 in data set [1] was over 7.00.
Take `O=C(NC(Cc1ccccc1)C(=O)O)c1ccc2cc(OCc3cccc(F)c3)ccc2c1` (stereo not drawn) [Example 1-6]: the melting point was 197 to 199 °C. Moreover, the pIC50 in data set [1] is over 7.00.
The matching figures for `O=C(NC(Cc1ccccc1)C(=O)O)c1ccc2cc(OCc3ccccc3C(F)(F)F)ccc2c1` (stereo not drawn) [Example 1-26]: 167 °C and 6.00 to 7.00.
Regarding `O=C(NC(Cc1ccccc1)C(=O)O)c1ccc2cc(OCc3cccc(Br)c3)ccc2c1` (stereo not drawn) [Example 1-52], the melting point was 194 °C. Also, the pIC50 in data set [1] was over 7.00.
The matching figures for `COc1cccc(COc2ccc3cc(C(=O)NC(Cc4ccccc4)C(=O)O)ccc3c2)c1OC` (stereo not drawn) [Example 1-38]: 161 °C and under 6.00.
For `Cc1ccccc1COc1ccc2cc(C(=O)NC(Cc3ccccc3)C(=O)O)ccc2c1` (stereo not drawn) [Example 1-54], in that order: 204 °C and over 7.00.
The matching figures for `O=C(NC(CO)C(=O)O)c1ccc2cc(OCc3ccccc3)ccc2c1` (stereo not drawn) [Example 1-2]: 196 to 198 °C and under 6.00.
Consider `O=C(NC(Cc1ccc(I)cc1)C(=O)O)c1ccc2cc(OCc3ccccc3)ccc2c1` (stereo not drawn) [Example 1-71], for which the melting point is 219 to 221 °C. In addition, the pIC50 in data set [1] is over 7.00.
The matching figures for `Cc1ccc(COc2ccc3cc(C(=O)NC(Cc4ccccc4)C(=O)O)ccc3c2)cc1C` (stereo not drawn) [Example 1-58]: 189 °C and 6.00 to 7.00.
Take `O=C(NC(Cc1ccccc1)C(=O)O)c1ccc2cc(OCc3cccc(OCC4CCCCC4)c3)ccc2c1` (stereo not drawn) [Example 1-88]: the melting point amounted to 180 °C. Moreover, in data set [1], the pIC50 was under 6.00.
